From ChEMBL document CHEMBL5038653, “A Brain-Penetrant and Bioavailable Pyrazolopiperazine BACE1 Inhibitor Elicits Sustained Reduction of Amyloid β In Vivo” (ACS Med Chem Lett, 2022)
Converted amounts (≈) assume the structure as drawn. The source made the active and inactive calls. No cut-off for these calls is given here.

What was measured:
Beta-secretase 1 = Beta-secretase 1 (Homo sapiens, UniProt P56817); assay: Inhibition of BACE1 (1 to 454 residues) (unknown origin) using APP harboring Swedish Lys/Met mutant-derived peptide as substrate by FRET assay
[1] = target: Voltage-gated inwardly rectifying potassium channel KCNH2 (Homo sapiens, UniProt Q12809); assay: Inhibition of hERG expressed in HEK293 cells at -80 mV holding potential by automated patch-clamp method; format: toxicity, cell-based
MDR1 = assay: Efflux ratio of apparent permeability in dog MDCK-MDR1 cells; format: ADME, cell-based, Canis lupus familiaris
Cytochrome P450 3A4 [2] = target: T1, Cytochrome P450 3A4 (Homo sapiens, UniProt P08684); assay: Inhibition of human CYP3A4 by fluorescence plate reader analysis; format: ADME
Cytochrome P450 3A4 [3] = target: T1, Cytochrome P450 3A4; assay: Inhibition of human CYP3A4 using midazolam as substrate by fluorescence plate reader analysis; format: ADME; details: for inhibition (INH): human
hERG (KCNH2) = hERG (KCNH2) (Homo sapiens, UniProt Q12809); assay: Inhibition of hERG expressed in HEK293 cells at 3 uM at -80 mV holding potential by automated patch-clamp method; format: toxicity, cell-based; details: HEK293 cells expressing hERG
[4] = Ratio of apparent permeability across apical to basolateral side in the presence of P-gp inhibitor elacridar to the absence of P-gp inhibitor elacridar in dog MDCK-MDR1 cells at 5 uM incubated for 120 mins; format: ADME, cell-based, Canis lupus familiaris; details: 2 h
[5] = Dissociation constant, pKa of the compound by fast UV-spectrometric titration analysis; format: physicochemical
[6] = Metabolic stability in human liver microsomes assessed as metabolite formation after 15 mins in presence of NADPH by LC-MS analysis; format: ADME, Microsome; details: 0.25 h
[7] = Metabolic stability in mouse liver microsomes assessed as metabolite formation after 15 mins in presence of NADPH by LC-MS analysis; format: ADME, Microsome; details: 0.25 h
Canis lupus familiaris = assay: In vivo inhibition of BACE1 in Beagle dog assessed as reduction of amyloid beta (1 to 42 residues) levels in CSF at 2.5 mg/kg, po measured after 24 hrs by electrochemiluminescence assay; format: functional, organism-based
[8] = Free drug concentration in rat brain measured after 5 hrs by HPLC-MS/MS method; format: ADME, tissue-based
[9] = Free drug concentration in human plasma measured after 4.5 hrs by HPLC-MS/MS method; format: ADME, cell-free
[10] = Free drug concentration in mouse plasma measured after 4.5 hrs by HPLC-MS/MS method; format: ADME, cell-free
[11] = Free drug concentration in dog plasma measured after 4.5 hrs by HPLC-MS/MS method; format: ADME, cell-free, Canis lupus familiaris
Cytochrome P450 3A4 [12] = target: T1, Cytochrome P450 3A4; assay: Inhibition of human CYP3A4 using testosterone as substrate by fluorescence plate reader analysis; format: ADME
Cytochrome P450 1A2 = target: T2, Cytochrome P450 1A2 (Homo sapiens, UniProt P05177); assay: Inhibition of human CYP1A2 by fluorescence plate reader analysis; format: ADME
T2 sequence (P05177 whole entry): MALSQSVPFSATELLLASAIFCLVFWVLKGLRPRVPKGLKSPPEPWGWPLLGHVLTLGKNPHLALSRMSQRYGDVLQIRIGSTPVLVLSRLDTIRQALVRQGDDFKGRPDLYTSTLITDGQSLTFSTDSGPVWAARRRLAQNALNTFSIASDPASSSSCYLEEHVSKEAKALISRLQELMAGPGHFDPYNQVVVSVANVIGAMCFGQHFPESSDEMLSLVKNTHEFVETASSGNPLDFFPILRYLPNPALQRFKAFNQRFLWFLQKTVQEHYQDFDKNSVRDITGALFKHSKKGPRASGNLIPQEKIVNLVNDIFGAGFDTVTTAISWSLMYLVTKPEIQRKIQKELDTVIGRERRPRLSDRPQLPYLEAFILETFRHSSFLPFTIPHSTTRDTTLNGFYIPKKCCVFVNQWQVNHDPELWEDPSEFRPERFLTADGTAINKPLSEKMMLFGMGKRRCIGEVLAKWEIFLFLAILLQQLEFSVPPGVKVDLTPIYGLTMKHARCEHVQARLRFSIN

Cytochrome P450 2C8 = target: T3, Cytochrome P450 2C8 (Homo sapiens, UniProt P10632); assay: Inhibition of human CYP2C8 by fluorescence plate reader analysis; format: ADME
T3 sequence (P10632 whole entry): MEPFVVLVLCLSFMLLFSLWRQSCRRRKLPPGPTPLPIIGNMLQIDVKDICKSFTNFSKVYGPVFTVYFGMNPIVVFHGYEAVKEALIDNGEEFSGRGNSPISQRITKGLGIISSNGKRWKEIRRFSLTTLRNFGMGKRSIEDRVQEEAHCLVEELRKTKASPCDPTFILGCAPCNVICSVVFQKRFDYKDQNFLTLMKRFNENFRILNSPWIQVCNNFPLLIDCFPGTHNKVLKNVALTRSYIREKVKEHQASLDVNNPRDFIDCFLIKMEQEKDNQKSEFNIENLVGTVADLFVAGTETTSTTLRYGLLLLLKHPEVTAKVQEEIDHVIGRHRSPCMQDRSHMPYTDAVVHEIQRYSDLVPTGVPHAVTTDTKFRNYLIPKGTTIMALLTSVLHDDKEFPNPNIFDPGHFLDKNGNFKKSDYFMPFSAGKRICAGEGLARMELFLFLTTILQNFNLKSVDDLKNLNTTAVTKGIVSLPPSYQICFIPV

Cytochrome P450 2C9 = Cytochrome P450 2C9 (Homo sapiens, UniProt P11712); assay: Inhibition of human CYP2C9 by fluorescence plate reader analysis; format: ADME
Cytochrome P450 2C19 = Cytochrome P450 2C19 (Homo sapiens, UniProt P33261); assay: Inhibition of human CYP2C19 by fluorescence plate reader analysis; format: ADME
Cytochrome P450 3A4 [13] = target: T1, Cytochrome P450 3A4; assay: Time dependent inhibition of human CYP3A4 using testosterone as substrate by fluorescence plate reader analysis; format: ADME
[14] = Half life in Beagle dog at 2.5 mg/kg, po; format: ADME, organism-based, Canis lupus familiaris; details: in vivo
[15] = In vivo inhibition of BACE1 in Beagle dog assessed as reduction of amyloid beta (1 to 42 residues) levels in CSF administered orally by electrochemiluminescence assay; format: functional, organism-based, Canis lupus familiaris; details: Canis lupus familiaris, Beagle
[16] = Total plasma concentration in Beagle dog at 2.5 mg/kg, po; format: ADME, organism-based, Canis lupus familiaris; details: in vivo

Chain of Beta-secretase 1 (P56817 whole entry, the tested form may be a part): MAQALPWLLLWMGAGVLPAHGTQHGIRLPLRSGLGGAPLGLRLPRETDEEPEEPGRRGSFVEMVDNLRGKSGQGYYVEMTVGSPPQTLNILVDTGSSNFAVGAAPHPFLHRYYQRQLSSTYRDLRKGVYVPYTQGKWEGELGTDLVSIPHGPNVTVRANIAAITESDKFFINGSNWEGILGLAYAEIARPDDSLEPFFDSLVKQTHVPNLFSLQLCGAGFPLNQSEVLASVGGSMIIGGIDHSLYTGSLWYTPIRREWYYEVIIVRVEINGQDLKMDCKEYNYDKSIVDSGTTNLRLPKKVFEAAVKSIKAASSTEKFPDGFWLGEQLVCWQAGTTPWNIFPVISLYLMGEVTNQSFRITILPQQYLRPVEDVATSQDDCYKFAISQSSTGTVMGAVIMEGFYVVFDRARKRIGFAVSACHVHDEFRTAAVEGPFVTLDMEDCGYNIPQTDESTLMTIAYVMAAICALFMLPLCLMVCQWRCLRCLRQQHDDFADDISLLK
T1 sequence (P08684 whole entry): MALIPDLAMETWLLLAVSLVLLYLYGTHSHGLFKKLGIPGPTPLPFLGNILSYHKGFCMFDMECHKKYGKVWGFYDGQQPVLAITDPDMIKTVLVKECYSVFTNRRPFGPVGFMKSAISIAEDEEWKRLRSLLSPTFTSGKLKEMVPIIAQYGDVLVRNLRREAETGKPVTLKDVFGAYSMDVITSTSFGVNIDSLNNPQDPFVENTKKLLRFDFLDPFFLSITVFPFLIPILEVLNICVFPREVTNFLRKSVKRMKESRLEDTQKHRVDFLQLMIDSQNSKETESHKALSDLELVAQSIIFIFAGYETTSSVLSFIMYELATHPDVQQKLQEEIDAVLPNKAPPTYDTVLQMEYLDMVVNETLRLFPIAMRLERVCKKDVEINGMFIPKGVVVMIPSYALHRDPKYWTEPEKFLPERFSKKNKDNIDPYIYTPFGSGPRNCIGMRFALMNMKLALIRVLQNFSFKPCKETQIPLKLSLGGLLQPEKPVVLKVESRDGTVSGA
Chain of Voltage-gated inwardly rectifying potassium channel KCNH2 (Q12809 whole entry): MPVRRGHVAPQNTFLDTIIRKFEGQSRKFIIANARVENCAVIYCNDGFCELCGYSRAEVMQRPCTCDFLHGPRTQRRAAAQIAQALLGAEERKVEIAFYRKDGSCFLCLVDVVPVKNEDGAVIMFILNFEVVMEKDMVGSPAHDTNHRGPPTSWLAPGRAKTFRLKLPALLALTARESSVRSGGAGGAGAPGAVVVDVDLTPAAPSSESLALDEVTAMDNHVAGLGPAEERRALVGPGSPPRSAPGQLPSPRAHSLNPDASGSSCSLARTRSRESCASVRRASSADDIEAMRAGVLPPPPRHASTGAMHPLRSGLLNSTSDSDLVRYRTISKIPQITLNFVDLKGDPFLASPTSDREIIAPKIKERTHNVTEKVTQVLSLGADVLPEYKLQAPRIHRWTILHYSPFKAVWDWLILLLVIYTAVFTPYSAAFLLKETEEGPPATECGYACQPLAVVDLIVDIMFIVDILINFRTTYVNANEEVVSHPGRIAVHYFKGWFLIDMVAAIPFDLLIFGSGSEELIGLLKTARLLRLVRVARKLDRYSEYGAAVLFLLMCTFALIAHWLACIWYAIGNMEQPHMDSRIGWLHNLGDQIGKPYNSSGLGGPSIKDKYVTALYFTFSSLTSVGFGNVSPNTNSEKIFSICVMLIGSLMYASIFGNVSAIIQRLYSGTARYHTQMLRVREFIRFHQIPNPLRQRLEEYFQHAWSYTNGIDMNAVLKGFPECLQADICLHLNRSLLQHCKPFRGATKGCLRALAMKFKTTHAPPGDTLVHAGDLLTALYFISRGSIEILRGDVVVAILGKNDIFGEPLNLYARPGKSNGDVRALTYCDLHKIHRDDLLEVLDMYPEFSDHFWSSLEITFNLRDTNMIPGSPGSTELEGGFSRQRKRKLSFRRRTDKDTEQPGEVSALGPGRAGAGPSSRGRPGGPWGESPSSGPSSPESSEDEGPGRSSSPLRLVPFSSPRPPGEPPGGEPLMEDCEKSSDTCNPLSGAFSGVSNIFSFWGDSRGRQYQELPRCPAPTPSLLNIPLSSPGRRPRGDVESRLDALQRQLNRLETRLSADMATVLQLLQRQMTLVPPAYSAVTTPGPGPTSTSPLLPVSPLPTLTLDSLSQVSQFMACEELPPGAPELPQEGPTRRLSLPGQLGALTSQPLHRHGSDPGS
Chain of hERG (KCNH2) (Q12809 whole entry): as above
Chain of Cytochrome P450 2C19 (P33261 whole entry): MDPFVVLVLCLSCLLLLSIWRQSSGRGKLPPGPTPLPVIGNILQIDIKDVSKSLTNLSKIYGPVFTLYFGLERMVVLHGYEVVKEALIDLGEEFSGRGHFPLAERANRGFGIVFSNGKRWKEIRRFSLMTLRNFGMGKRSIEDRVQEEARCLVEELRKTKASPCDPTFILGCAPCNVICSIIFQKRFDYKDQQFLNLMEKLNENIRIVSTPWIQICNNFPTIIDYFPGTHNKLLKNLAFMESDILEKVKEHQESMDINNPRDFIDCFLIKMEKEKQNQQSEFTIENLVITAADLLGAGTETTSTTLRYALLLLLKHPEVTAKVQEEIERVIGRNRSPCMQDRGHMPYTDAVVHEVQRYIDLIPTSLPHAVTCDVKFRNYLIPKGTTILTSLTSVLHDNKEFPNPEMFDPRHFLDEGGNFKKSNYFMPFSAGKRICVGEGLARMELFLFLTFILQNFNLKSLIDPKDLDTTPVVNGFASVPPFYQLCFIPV
Chain of Cytochrome P450 2C9 (P11712 whole entry): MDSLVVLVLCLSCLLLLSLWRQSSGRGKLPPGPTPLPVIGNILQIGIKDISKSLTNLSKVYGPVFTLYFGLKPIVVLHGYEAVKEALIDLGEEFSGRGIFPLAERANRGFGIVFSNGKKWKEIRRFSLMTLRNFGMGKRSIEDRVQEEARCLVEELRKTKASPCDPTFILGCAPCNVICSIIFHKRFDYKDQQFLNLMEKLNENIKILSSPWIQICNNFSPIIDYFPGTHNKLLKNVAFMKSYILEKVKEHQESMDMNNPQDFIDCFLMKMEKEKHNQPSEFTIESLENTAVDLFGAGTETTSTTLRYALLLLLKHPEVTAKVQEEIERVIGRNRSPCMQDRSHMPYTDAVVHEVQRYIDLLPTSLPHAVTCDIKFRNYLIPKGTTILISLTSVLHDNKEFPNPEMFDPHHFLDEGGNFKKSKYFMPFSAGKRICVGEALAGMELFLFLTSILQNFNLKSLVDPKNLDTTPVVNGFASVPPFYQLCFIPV

IC50 (Beta-secretase 1) | efflux ratio (MDR1) | IC50 (Cytochrome P450 3A4 [2]) | Compound | IC50 [1] | further results
0.0045 µM | 19.4 |  | Cc1nc(C(=O)Nc2ccc(F)c([C@]3(C)Cn4nc(C#N)cc4C(N)=N3)c2)co1 | > 10 µM | 
0.0026 µM |  | 0.9 µM | C[C@@]1(c2cc(NC(=O)c3ccc(Cl)cn3)ccc2F)Cn2c(C#N)cnc2C(N)=N1 | > 10 µM | inhibition (INH) (Cytochrome P450 3A4 [3]): Active
0.0115 µM |  | 4.4 µM | C[C@@]1(c2cc(NC(=O)c3ccc(F)cn3)ccc2F)Cn2c(C#N)cnc2C(N)=N1 | > 10 µM | inhibition (INH) (Cytochrome P450 3A4 [3]): Active
0.0055 µM |  | 3.1 µM | COc1cnc(C(=O)Nc2ccc(F)c([C@]3(C)Cn4c(C#N)cnc4C(N)=N3)c2)cn1 | > 10 µM | 
0.0023 µM | 8.5 |  | C[C@@]1(c2cc(NC(=O)c3cnc(OCF)cn3)ccc2F)Cn2nc(C#N)cc2C(N)=N1 | > 10 µM | 
0.0037 µM | 11.5 |  | C[C@@]1(c2cc(NC(=O)c3cnc(C(F)F)cn3)ccc2F)Cn2nc(C#N)cc2C(N)=N1 | > 10 µM | 
 |  |  | C[C@@]1(c2cc(NC(=O)c3ccc(C#N)cn3)ccc2F)Cn2ccnc2C(N)=N1 |  | inhibition at 3 µM (hERG (KCNH2)): 76%
0.0017 µM | 15.2 |  | C[C@@]1(c2cc(NC(=O)c3ccc(C#N)cn3)ccc2F)Cn2nc(C#N)cc2C(N)=N1 | 4.6 µM | inhibition at 3 µM (hERG (KCNH2)): 71%
 |  |  | CC(C)(C)OC(=O)Nc1ccc(F)c([C@]2(C)Cn3c(C#N)cnc3C(N)=N2)c1 |  | inhibition (INH) (Cytochrome P450 3A4 [3]): Active
0.013 µM |  |  | C[C@@]1(c2cc(NC(=O)c3ccc(C#N)cn3)ccc2F)Cn2cc(C#N)nc2C(N)=N1 | 6.6 µM | Ratio [4]: 16.8; pKa [5]: 7; Drug metabolism [6]: 3%; Drug metabolism [7]: 95%
0.0014 µM | 7 |  | C[C@@]1(c2cc(NC(=O)c3ccc(OC(F)F)cn3)ccc2F)Cn2nc(C#N)cc2C(N)=N1 | 6.6 µM | 
0.0028 µM | 7 |  | C[C@@]1(c2cc(NC(=O)c3ccc(F)cn3)ccc2F)Cn2nc(C#N)cc2C(N)=N1 | 3.3 µM | 

Compound | IC50 (Beta-secretase 1) | efflux ratio (MDR1) | IC50 (Cytochrome P450 3A4 [2]) | IC50 [1] | further results
C[C@@]1(c2cc(NC(=O)c3ccc(C#N)cn3)ccc2F)Cn2c(C#N)cnc2C(N)=N1 | 0.0037 µM |  | 6.7 µM | > 10 µM | inhibition (Canis lupus familiaris): inactive; Ratio [4]: 9.3; pKa [5]: 7.2; Drug metabolism [6]: 34%; Drug metabolism [7]: 81%; fraction unbound at 5 h [8]: 0.15; fraction unbound at 4.5 h [9]: 0.2; fraction unbound at 4.5 h [10]: 0.06; fraction unbound at 4.5 h [11]: 0.32; IC50 (Cytochrome P450 3A4 [12]): 1.5 µM; IC50 (Cytochrome P450 3A4 [3]): 6.7 µM; IC50 (Cytochrome P450 1A2): > 10 µM; IC50 (Cytochrome P450 2C8): > 10 µM; IC50 (Cytochrome P450 2C9): > 10 µM; IC50 (Cytochrome P450 2C19): > 10 µM; IC50 (Cytochrome P450 3A4 [13]): 0.27 µM; half-life [14]: 8 h; EC50 [15]: 0.03 µg/mL (≈ 0.0724 µM); concentration [16]: 72 nM
